# From the NIST ThermoML archive (doi:10.1007/s10765-005-5570-x)
# ± gives the expanded uncertainty stated by the source.
# Test: xn = mol fraction of the nth substance listed
# Conditions: Liquid
smiles,measurement,setting,value
ClCCBr [1-bromo-2-chloroethane] + CCOC(C)=O,mass density,"288.15 K, 101.33 kPa, x1 = 0.108",984.97 ± 0.4 kg/m3
same,mass density,"288.15 K, 101.33 kPa, x1 = 0.1985",1051.71 ± 0.52 kg/m3
same,mass density,"288.15 K, 101.33 kPa, x1 = 0.2997",1128.56 ± 0.73 kg/m3
same,mass density,"288.15 K, 101.33 kPa, x1 = 0.3988",1205.99 ± 0.95 kg/m3
same,mass density,"288.15 K, 101.33 kPa, x1 = 0.5008",1288.67 ± 1.2 kg/m3
same,mass density,"288.15 K, 101.33 kPa, x1 = 0.5477",1327.76 ± 1.3 kg/m3
same,mass density,"288.15 K, 101.33 kPa, x1 = 0.6462",1412.26 ± 1.6 kg/m3
same,mass density,"288.15 K, 101.33 kPa, x1 = 0.7653",1518.63 ± 1.9 kg/m3
same,mass density,"288.15 K, 101.33 kPa, x1 = 0.803",1553.45 ± 2 kg/m3
same,mass density,"288.15 K, 101.33 kPa, x1 = 0.905",1650.02 ± 2.3 kg/m3
same,mass density,"288.15 K, 101.33 kPa, x1 = 1",1744.36 ± 2.6 kg/m3
same,mass density,"298.15 K, 101.33 kPa, x1 = 0.108",972.55 ± 0.41 kg/m3
same,mass density,"298.15 K, 101.33 kPa, x1 = 0.1985",1039.06 ± 0.5 kg/m3
same,mass density,"298.15 K, 101.33 kPa, x1 = 0.2997",1115.49 ± 0.7 kg/m3
same,mass density,"298.15 K, 101.33 kPa, x1 = 0.3988",1192.41 ± 0.92 kg/m3
same,mass density,"298.15 K, 101.33 kPa, x1 = 0.5008",1274.57 ± 1.2 kg/m3
same,mass density,"298.15 K, 101.33 kPa, x1 = 0.5477",1313.32 ± 1.3 kg/m3
same,mass density,"298.15 K, 101.33 kPa, x1 = 0.6462",1397.28 ± 1.5 kg/m3
same,mass density,"298.15 K, 101.33 kPa, x1 = 0.7653",1503.13 ± 1.9 kg/m3
same,mass density,"298.15 K, 101.33 kPa, x1 = 0.803",1537.71 ± 2 kg/m3
same,mass density,"298.15 K, 101.33 kPa, x1 = 0.905",1634.03 ± 2.3 kg/m3
same,mass density,"298.15 K, 101.33 kPa, x1 = 1",1727.88 ± 2.6 kg/m3
same,mass density,"298.15 K, 200 kPa, x1 = 0.2995",1115.91 ± 0.71 kg/m3
same,mass density,"298.15 K, 200 kPa, x1 = 0.5013",1278.27 ± 1.2 kg/m3
same,mass density,"298.15 K, 200 kPa, x1 = 0.6994",1442.43 ± 1.7 kg/m3
same,mass density,"298.15 K, 500 kPa, x1 = 0.2995",1116.35 ± 0.71 kg/m3
same,mass density,"298.15 K, 600 kPa, x1 = 0.6994",1443.12 ± 1.7 kg/m3
same,mass density,"298.15 K, 700 kPa, x1 = 0.5013",1278.85 ± 1.2 kg/m3
same,mass density,"298.15 K, 1100 kPa, x1 = 0.6994",1443.6 ± 1.8 kg/m3
same,mass density,"298.15 K, 1200 kPa, x1 = 0.2995",1117.05 ± 0.73 kg/m3
same,mass density,"298.15 K, 1200 kPa, x1 = 0.5013",1279.48 ± 1.2 kg/m3
same,mass density,"298.15 K, 2100 kPa, x1 = 0.2995",1118.11 ± 0.75 kg/m3
same,mass density,"298.15 K, 2100 kPa, x1 = 0.5013",1280.34 ± 1.3 kg/m3
same,mass density,"298.15 K, 2100 kPa, x1 = 0.6994",1444.65 ± 1.8 kg/m3
same,mass density,"298.15 K, 2900 kPa, x1 = 0.6994",1445.74 ± 1.9 kg/m3
same,mass density,"298.15 K, 3000 kPa, x1 = 0.2995",1119.13 ± 0.77 kg/m3
same,mass density,"298.15 K, 3000 kPa, x1 = 0.5013",1281.5 ± 1.3 kg/m3
same,mass density,"298.15 K, 4000 kPa, x1 = 0.2995",1120.19 ± 0.79 kg/m3
same,mass density,"298.15 K, 4000 kPa, x1 = 0.5013",1282.56 ± 1.4 kg/m3
same,mass density,"298.15 K, 4100 kPa, x1 = 0.6994",1447.07 ± 2 kg/m3
same,mass density,"298.15 K, 5000 kPa, x1 = 0.2995",1121.32 ± 0.81 kg/m3
same,mass density,"298.15 K, 5000 kPa, x1 = 0.5013",1283.71 ± 1.4 kg/m3
same,mass density,"298.15 K, 5100 kPa, x1 = 0.6994",1448.15 ± 2.1 kg/m3
same,mass density,"298.15 K, 5800 kPa, x1 = 0.2995",1122.17 ± 0.83 kg/m3
same,mass density,"298.15 K, 5800 kPa, x1 = 0.6994",1448.98 ± 2.2 kg/m3
same,mass density,"298.15 K, 5900 kPa, x1 = 0.5013",1284.8 ± 1.5 kg/m3
same,mass density,"298.15 K, 7000 kPa, x1 = 0.5013",1285.84 ± 1.6 kg/m3
same,mass density,"298.15 K, 7000 kPa, x1 = 0.6994",1450.32 ± 2.3 kg/m3
same,mass density,"298.15 K, 7100 kPa, x1 = 0.2995",1123.21 ± 0.86 kg/m3
same,mass density,"298.15 K, 7700 kPa, x1 = 0.6994",1451.09 ± 2.3 kg/m3
same,mass density,"298.15 K, 7900 kPa, x1 = 0.2995",1124.37 ± 0.89 kg/m3
same,mass density,"298.15 K, 8000 kPa, x1 = 0.5013",1286.92 ± 1.6 kg/m3
same,mass density,"298.15 K, 8600 kPa, x1 = 0.2995",1125.17 ± 0.91 kg/m3
same,mass density,"298.15 K, 8700 kPa, x1 = 0.5013",1287.86 ± 1.6 kg/m3
same,mass density,"298.15 K, 8800 kPa, x1 = 0.6994",1452.5 ± 2.5 kg/m3
same,mass density,"298.15 K, 10100 kPa, x1 = 0.2995",1126.71 ± 0.95 kg/m3
same,mass density,"298.15 K, 10100 kPa, x1 = 0.5013",1289.28 ± 1.7 kg/m3
same,mass density,"298.15 K, 10300 kPa, x1 = 0.6994",1454.22 ± 2.6 kg/m3
same,mass density,"298.15 K, 11700 kPa, x1 = 0.2995",1128.38 ± 0.99 kg/m3
same,mass density,"298.15 K, 12000 kPa, x1 = 0.5013",1291.48 ± 1.9 kg/m3
same,mass density,"298.15 K, 12000 kPa, x1 = 0.6994",1456.29 ± 2.8 kg/m3
same,mass density,"298.15 K, 13700 kPa, x1 = 0.5013",1293.44 ± 2 kg/m3
same,mass density,"298.15 K, 13800 kPa, x1 = 0.2995",1130.67 ± 1.1 kg/m3
same,mass density,"298.15 K, 14000 kPa, x1 = 0.6994",1458.57 ± 3 kg/m3
same,mass density,"298.15 K, 15500 kPa, x1 = 0.5013",1295.42 ± 2.1 kg/m3
same,mass density,"298.15 K, 15900 kPa, x1 = 0.2995",1132.71 ± 1.1 kg/m3
same,mass density,"298.15 K, 15900 kPa, x1 = 0.6994",1460.86 ± 3.2 kg/m3
same,mass density,"298.15 K, 17400 kPa, x1 = 0.6994",1462.58 ± 3.3 kg/m3
same,mass density,"298.15 K, 17700 kPa, x1 = 0.2995",1134.48 ± 1.2 kg/m3
same,mass density,"298.15 K, 17900 kPa, x1 = 0.5013",1298.2 ± 2.3 kg/m3
same,mass density,"298.15 K, 19200 kPa, x1 = 0.6994",1464.86 ± 3.5 kg/m3
same,mass density,"298.15 K, 19700 kPa, x1 = 0.2995",1136.76 ± 1.2 kg/m3
same,mass density,"298.15 K, 19800 kPa, x1 = 0.5013",1300.25 ± 2.4 kg/m3
same,mass density,"308.15 K, 101.33 kPa, x1 = 0.108",959.03 ± 0.43 kg/m3
same,mass density,"308.15 K, 101.33 kPa, x1 = 0.1985",1024.94 ± 0.48 kg/m3
same,mass density,"308.15 K, 101.33 kPa, x1 = 0.2997",1100.59 ± 0.68 kg/m3
same,mass density,"308.15 K, 101.33 kPa, x1 = 0.3988",1177.02 ± 0.89 kg/m3
same,mass density,"308.15 K, 101.33 kPa, x1 = 0.5008",1258.55 ± 1.1 kg/m3
same,mass density,"308.15 K, 101.33 kPa, x1 = 0.5477",1296.96 ± 1.2 kg/m3
same,mass density,"308.15 K, 101.33 kPa, x1 = 0.6462",1380.36 ± 1.5 kg/m3
same,mass density,"308.15 K, 101.33 kPa, x1 = 0.7653",1485.56 ± 1.8 kg/m3
same,mass density,"308.15 K, 101.33 kPa, x1 = 0.803",1519.81 ± 1.9 kg/m3
same,mass density,"308.15 K, 101.33 kPa, x1 = 0.905",1615.55 ± 2.2 kg/m3
same,mass density,"308.15 K, 101.33 kPa, x1 = 1",1708.86 ± 2.5 kg/m3
